Results published in patent US6610655B2, “Pentapeptide with specific conformation, its production and use” (Takeda Chemical Industries, Inc., priority 1994, dated 2003).
Where a SMILES comes first, the peptide text is derived from it. [ ]: non-standard residue; d: D form. The star is where a group is joined. Bn = c1ccc(C*)cc1

Biological target: T1, NK2 receptor (Bos taurus, UniProt P05363)
T1 construct: membrane fraction containing the receptor was prepared from the inner wall of the bovine third stomach; tissue Kyoto Chuo Chikusan Fukuseibutsu Oroshi Kyokai; host or cells: inner wall of the bovine third stomach (membrane fraction)
T1 sequence (P05363 1-384): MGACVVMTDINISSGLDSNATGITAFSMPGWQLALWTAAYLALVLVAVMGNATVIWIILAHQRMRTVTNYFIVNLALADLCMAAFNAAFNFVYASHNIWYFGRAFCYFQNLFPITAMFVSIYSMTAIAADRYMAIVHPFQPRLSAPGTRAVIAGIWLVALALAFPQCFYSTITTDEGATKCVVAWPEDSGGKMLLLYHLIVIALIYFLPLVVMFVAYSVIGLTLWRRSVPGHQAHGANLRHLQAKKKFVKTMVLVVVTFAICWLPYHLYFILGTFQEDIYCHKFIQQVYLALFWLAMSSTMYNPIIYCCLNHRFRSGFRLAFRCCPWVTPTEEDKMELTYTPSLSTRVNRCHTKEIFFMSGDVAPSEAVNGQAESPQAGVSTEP
Assay: Binding inhibiting activity on NK2 receptor (125I-NKA, membrane fraction of bovine third stomach)
Conditions: 125I-neurokinin A, membrane fraction from inner wall of bovine third stomach, 25° C., 3 hours
Procedure: The method of Paul L. M. Van Giersbergen et al. [Proc. Natl. Acad. Sci. U.S.A., 88, 1661 (1991) was modified for this assay. The membrane fraction containing the receptor was prepared from the inner wall of the bovine third stomach (purchased from Kyoto Chuo Chikusan Fukuseibutsu Oroshi Kyokai).
The inner wall of the bovine third stomach stored at −80° C. was cut to 1 cm×1 cm or less, and disrupted in 3 liters/kg of 50 mM Tris-HCl buffer (pH 7.4) supplemented with 120 mM sodium chloride, 5 mM potassium chloride, 0.02% BSA and 5% sucrose, using a polytron homogenizer (Kinematika, Germany). Then, the disrupted product was centrifuged at 1,000×g for 10 minutes. The supernatant was further centrifuged at 45,000×g for 20 minutes. The precipitate was suspended in 200 ml of 50 mM Tris-HCl buffer (pH 7.4) supplemented with 300 mM potassium chloride, 10 mM ethylenediaminetetraacetic acid, 0.1 mM […] and 0.02% BSA, and gently stirred under ice cooling for 60 minutes. The suspension was centrifuged at 45,000×g for 20 minutes. The precipitate was washed with 200 ml of 50 mM Tris-HCl buffer (pH 7.4), and stored in the frozen state at −40° C. as a receptor sample.
This sample was suspended in a reaction buffer solution [50 mM Tris-HCl buffer (pH 7.4), 0.02% bovine serum albumin and 4 mM manganese chloride] so as to give a protein concentration of 0.7 mg/ml, and 100 μl thereof was used for reaction. A test sample and ^125I-NKA (0.61 KBq, ^125I-neurokinin A, 81.4 TBq/mmol, Du Pont/NEN Research Products, U.S.A.) were also added, and reacted in 0.2 ml of the reaction buffer solution at 25° C. for 3 hours. The reaction mixture was rapidly filtered through a glass filter (GF/B, Whatman, U.S.A.) using a cell harvester (Type 290PHD, Cambridge Technology Inc., U.S.A.) to terminate the reaction, and washed 3 times with 250 μl of 50 mM Tris-HCl buffer (pH 7.4) supplemented with 0.02% bovine serum albumin. The radioactivity left on the filter was measured with a gamma-ray counter. […]

Compound | IC50
CC(C)C[C@@H]1NC(=O)[C@@H](CC(C)C)NC(=O)[C@H]([C@@H](C)OCc2ccccc2)NC(=O)[C@@H](CCC(=O)O)NC(=O)[C@@H](Cc2c[nH]c3ccccc23)NC1=O [Cyclo(-D-Glu-Thr(Bzl)-D-Leu-Leu-D-Trp-)] (cyclo([dE]T(Bn)[dL]L[dW])) | 1500 nM
CC(C)C[C@@H]1NC(=O)[C@@H](CC(C)C)NC(=O)[C@H](COCc2ccccc2)NC(=O)[C@@H](CCC(=O)O)NC(=O)[C@@H](Cc2c[nH]c3ccccc23)NC1=O [Cyclo(-D-Glu-Ser(Bzl)-D-Leu-Leu-D-Trp-)] (cyclo([dE]S(Bn)[dL]L[dW])) | 580 nM
CC(C)C[C@@H]1NC(=O)[C@@H](CC(C)C)NC(=O)[C@H](Cc2c[nH]c3ccccc23)NC(=O)[C@@H](CC(=O)O)NC(=O)[C@@H](Cc2c[nH]c3ccccc23)NC1=O [Cyclo(-D-Asp-Trp-D-Leu-Leu-D-Trp-)] (cyclo([dD]W[dL]L[dW])) | 27 nM
